Assay results as given in patent publication US11944685B2, “Preparation method and application of novel injection abiraterone derivative” (TIANJIN HAIRUNJIAHE INNOVATIVE PHARMACEUTICAL RESEARCH …, priority 2021, dated 2024).

What was measured:
[1] = test system: human prostate cancer cells (LNCaP); conditions: 2.5-160 μM, incubation 48 hours, CCK8; compared with Abiraterone AA
Experimental: (§1) Cell survival rate tested by CCK8 method: after the solution was pipetted from the wells, each well was added with 10 μl of CCK8 reagent and 100 μl of serum-free medium for further culture for 4 hours. An absorbance value of each well at 450 nm was determined using a microplate reader.

[2] = test system: human prostate cancer cells (DU145); conditions: 2.5-160 μM, incubation 48 hours, CCK8; compared with Abiraterone AA
Experimental: as §1

[3] = Pharmacokinetic study in rats (plasma, LC-MS/MS); format: in vivo, SD rats
Experimental: Pharmacokinetics experiments of the polyaminopolycarboxylic acid modified abiraterone derivative AA-DTPA prepared in Example 2 in rats includes the following steps:
A total of eight healthy male SD rats weighing 220+/−20 g were randomly divided into 2 groups, with 4 rats in each group; one group was administered with AA-DTPA from tail veins of the rats at a dose of 8 mg/kg in a volume of 0.2 ml/200 g rat; the other group was administrated intragastrically with AA at a dose of 30 mg/kg in a volume of 0.2 ml/200 g rat; blood samples were collected at time points of 5, 15, and 30 minutes, as well as 1, 2, 4, 6, 12, and 24 hours before and after administration for both groups; and at each time point, 0.5 ml of blood was sampled from canthi, and was placed in a heparinized plastic centrifuge tube, centrifugation was performed at 3000 r/min for 10 minutes, and plasma was separated therefrom.
50 μl of rat plasma samples+5 μl of methanol ice (1:1, v/v)+150 μl of precipitant were taken, and fully whirled and shaken for 3 minutes, a mixture was then centrifuged at 4° and 12000 r/min for 10 minutes, and a supernatant was pipetted, and analyzed with sample injection by LC-MS/MS (liquid chromatography-tandem mass spectrometry).

[4] = Toxicity study: blood routine, blood biochemistry and tissue pathology of healthy ICR male mice; format: in vivo; conditions: 28 days
Experimental: The influence of the polyaminopolycarboxylic acid modified Abiraterone derivative AA-DTPA prepared in Example 5 on blood routine, blood biochemistry and pathological tissues of ICR healthy male mice following administration for 28 days includes the following steps:
20 ICR mice were selected, and were divided into 4 groups (NS group, positive control group AA 150 mg/kg/d p.o., and experimental groups AA-DTPA 35 mg/kg/w and 52.5 mg/kg/w i.v.), each of which had 5 mice.
The mice were administrated intragastrically once daily, and administrated intravenously, […], and blood was sampled for submission following the treatment for 28 days; all mice were sacrificed by cervical dislocation, hearts, livers, spleens, lungs, kidneys, and testes were dissected and collected, and fixed with 10% formaldehyde; and after being embedded by paraffin, the organs were sectioned, and histopathological examination was performed after HE staining (see FIG. 13 for results from blood routine experiments, FIG. 14 for results from blood biochemistry experiments, and FIG. 15 for results from histopathological experiments).

[5] = Organ indexes and body weights of prostate cancer LNCaP tumor-bearing mice; format: in vivo, nude mice; conditions: 28 days; for body weights of the mice: vs normal group
Experimental: A normal group (Normal) was not given any treatment; a model group (NS) received a daily injection of an equal volume of physiological saline; an AA group (150 mg/kg/d p.o.) was administrated intragastrically, once daily; and an AA-DTPA group (35 mg/kg/w i.v.) and an AA-DTPA group (52.5 mg/kg/w i.v.) were administrated from tail veins once weekly.
Diameters of the xenograft tumors of the nude mice were measured with vernier calipers, and the anti-tumor effect of the Abiraterone was dynamically observed.
Two days following the last administration, the mice were sacrificed, and hearts, livers, spleens, lungs, kidneys, and testes were dissected off and weighed, and organ indexes [organ index=organ weight/(body weight−tumor weight), unit: mg/g] were calculated.

[6] = test system: human prostate cancer LNCaP derived xenograft tumors; experiment: Inhibition of growth of human prostate cancer LNCaP derived xenograft tumors of nude mice; conditions: for tumor inhibition effect compared with the AA group: 28 days; for tumor growth: treatment for 28 days
[7] = intragastric administration 30 mg/kg
[8] = intravenous injection (tail vein) 8 mg/kg
[9] = healthy male ICR mice, 35 and 52.5 mg/kg/w i.v. vs AA 150 mg/kg/d p.o.
[10] = healthy male ICR mice, 35 and 52.5 mg/kg/w i.v.

## CC12CCC(OC(=O)CN(CCN(CCN(CCN(CC(=O)O)CC(=O)O)CC(=O)O)CC(=O)O)CC(=O)O)CC1=CCC1C2CCC2(C)C(c3cccnc3)=CCC12 (stereo not drawn) [AA-TTHA, triethylenetetramine hexaacetic acid modified Abiraterone derivative]
[1]
  in vitro anti-tumor effect (LNCaP), cell survival rate: superior to the in vitro anti-tumor effect of Abiraterone AA
[2]
  in vitro anti-tumor effect (DU145), cell survival rate: superior to the in vitro anti-tumor effect of Abiraterone AA

## C[C@]12CC[C@H](O)CC1=CC[C@@H]1[C@@H]2CC[C@]2(C)C(c3cccnc3)=CC[C@@H]12 [AA, Abiraterone]
[3]; [7]
  absorption in vivo: absorbed slowly
  peak value of AA concentration in blood plasma: 15.28 ± 1.24 ng/mL
  time to peak plasma concentration: 0.5 h
[3]; male, SD, rat, plasma, po, intragastric administration 30 mg/kg, read-out: half-life period (converted)
  half-life: 8.46 h
[4]; 150 mg/kg/d p.o., HE staining
  histopathology of hearts, spleens, kidneys and testes: no abnormal changes
  histopathology of livers: mild pathological changes
  histopathology of lungs: mild pathological changes
[5]; 150 mg/kg/d p.o.
  heart indexes: slight decline
  indexes of livers, lungs and kidneys vs model group: no significant difference
[5]; 150 mg/kg/d p.o., compared with normal group and model group
  testis indexes: testicular atrophy and a sharp decrease in testis indexes

## CC12CCC(OC(=O)CN(CCN(CCN(CC(=O)O)CC(=O)O)CC(=O)O)CC(=O)O)CC1=CCC1C2CCC2(C)C(c3cccnc3)=CCC12 (stereo not drawn) [AA-DTPA, diethylenetriaminepentaacetic acid modified Abiraterone derivative]
[3]; [8]
  average clearance rate: 8.55 mL/min/kg
  half-life period: 0.26 h
  plasma concentration-time profile: double exponential decay
[6]; 35 mg/kg/w i.v. vs AA 150 mg/kg/d p.o.
  tumor inhibition effect compared with the AA group: better tumor inhibition effects
[6]; 35 mg/kg/w i.v.
  tumor growth: significantly inhibited
[6]; 52.5 mg/kg/w i.v. vs AA 150 mg/kg/d p.o.
  tumor inhibition effect compared with the AA group: better tumor inhibition effects
[6]; 52.5 mg/kg/w i.v.
  tumor growth: significantly inhibited
[4]; 52.5 mg/kg/w i.v., HE staining
  histopathology of lungs: mild pathological changes
[4]; 35 and 52.5 mg/kg/w i.v.
  organ toxicity (histopathology): no obvious organ toxicity
[4]; 35 and 52.5 mg/kg/w i.v., HE staining
  histopathology of hearts, spleens, kidneys and testes: no abnormal changes
[4]; [9]
  effect on alanine aminotransferase and aspartate aminotransferase compared with AA group: less effect
  effect on number of lymphocytes and monocytes compared with AA group: less effect
[4]; [10]
  effect on blood biochemistry: less effect
  effect on blood routine: less effect
[4]; healthy male ICR mice
  toxicity compared with AA: less toxic than that of the AA
[1]
  in vitro anti-tumor effect (LNCaP), cell survival rate: superior to the in vitro anti-tumor effect of Abiraterone AA
[2]
  in vitro anti-tumor effect (DU145), cell survival rate: superior to the in vitro anti-tumor effect of Abiraterone AA
[5]; 35 mg/kg i.v. weekly
  body weights of the mice: equivalent to those of the mice in the normal group
[5]; 52.5 mg/kg i.v. weekly
  body weights of the mice: equivalent to those of the mice in the normal group
[5]; AA-DTPA treatment group (35 and 52.5 mg/kg/w i.v.)
  indexes of hearts, livers, lungs, kidneys and testes vs model group: No significant difference
[5]; LNCaP tumor-bearing mice
  organ toxicity compared with AA under the treatment dose: lower than that of the AA
